According to patent publication US20040063662A1, “Selenophene anti-tumor agents” (priority 1996, published 2004):
Read-outs that look alike come from different tables or passages of the source.

Tests used:
HL-60(TB) = assay: NCI human tumor cell panel: HL-60(TB) (Leukemia); type: cell-based; settings: for GI50: read-out: Log10 GI50 (converted)
K-562 = assay: NCI human tumor cell panel: K-562 (Leukemia); type: cell-based; settings: for GI50: K562, K-562, read-out: Log10 GI50 (converted); for IC (TGI): K562, K-562, read-out: Log10 TGI (converted)
MOLT-4 = assay: NCI human tumor cell panel: MOLT-4 (Leukemia); type: cell-based; settings: for GI50: MOLT-4, read-out: Log10 GI50 (converted); for IC (TGI): MOLT-4, read-out: Log10 TGI (converted)
A549/ATCC = assay: NCI human tumor cell panel: A549/ATCC (Non-Small Cell Lung Cancer); type: cell-based; settings: for GI50: read-out: Log10 GI50 (converted); for IC (TGI): read-out: Log10 TGI (converted)
EKVX = assay: NCI human tumor cell panel: EKVX (Non-Small Cell Lung Cancer); type: cell-based; settings: for GI50: read-out: Log10 GI50 (converted); for IC (TGI): read-out: Log10 TGI (converted)
NCI-H226 = assay: NCI human tumor cell panel: NCI-H226 (Non-Small Cell Lung Cancer); type: cell-based
NCI-H322M = assay: cells; type: cell-based; settings: Homo sapiens
COLO 205 = assay: NCI human tumor cell panel: COLO 205 (Colon Cancer); type: cell-based; settings: for GI50: COLO 205, read-out: Log10 GI50 (converted); for IC (TGI): COLO 205, read-out: Log10 TGI (converted)
HCC-2998 = assay: NCI human tumor cell panel: HCC-2998 (Colon Cancer); type: cell-based; settings: for GI50: HCC-2998, read-out: Log10 GI50 (converted); for IC (TGI): HCC-2998, read-out: Log10 TGI (converted)
HCT-116 = assay: NCI human tumor cell panel: HCT-116 (Colon Cancer); type: cell-based; settings: for GI50: HCT-116, read-out: Log10 GI50 (converted); for IC (TGI): HCT-116, read-out: Log10 TGI (converted)
HCT-15 = assay: NCI human tumor cell panel: HCT-15 (Colon Cancer); type: cell-based; settings: for GI50: HCT-15, read-out: Log10 GI50 (converted); for IC (TGI): HCT-15, read-out: Log10 TGI (converted)
HT29 = assay: NCI human tumor cell panel: HT29 (Colon Cancer); type: cell-based; settings: for GI50: HT-29, HT29, read-out: Log10 GI50 (converted); for IC (TGI): HT-29, HT29, read-out: Log10 TGI (converted)
KM12 = assay: NCI human tumor cell panel: KM12 (Colon Cancer); type: cell-based; settings: for GI50: KM12, read-out: Log10 GI50 (converted); for IC (TGI): KM12, read-out: Log10 TGI (converted)
SF-268 = assay: NCI human tumor cell panel: SF-268 (CNS Cancer); type: cell-based; settings: for GI50: SF-268, read-out: Log10 GI50 (converted); for IC (TGI): SF-268, read-out: Log10 TGI (converted)
SNB-19 = assay: NCI human tumor cell panel: SNB-19 (CNS Cancer); type: cell-based; settings: for GI50: SNB-19, read-out: Log10 GI50 (converted); for IC (TGI): SNB-19, read-out: Log10 TGI (converted)
U251 = assay: NCI human tumor cell panel: U251 (CNS Cancer); type: cell-based; settings: for GI50: U-251, U251, read-out: Log10 GI50 (converted); for IC (TGI): U-251, U251, read-out: Log10 TGI (converted)
MALME-3M = assay: NCI human tumor cell panel: MALME-3M (Melanoma); type: cell-based; settings: Malme-3M; for GI50: read-out: Log10 GI50 (converted); for IC (TGI): read-out: Log10 TGI (converted)
SK-MEL-28 = assay: NCI human tumor cell panel: SK-MEL-28 (Melanoma); type: cell-based; settings: for GI50: SK-MEL-28, read-out: Log10 GI50 (converted); for IC (TGI): SK-MEL-28, read-out: Log10 TGI (converted)
OVCAR-3 = assay: NCI human tumor cell panel: OVCAR-3 (Ovarian Cancer); type: cell-based; settings: for GI50: OVCAR-3, read-out: Log10 GI50 (converted); for IC (TGI): OVCAR-3, read-out: Log10 TGI (converted)
ACHN = assay: NCI human tumor cell panel: ACHN (Renal Cancer); type: cell-based
CAKI-1 = assay: NCI human tumor cell panel: CAKI-1 (Renal Cancer); type: cell-based; settings: for GI50: CAKI-1, read-out: Log10 GI50 (converted); for IC (TGI): CAKI-1, read-out: Log10 TGI (converted)
RXF-393 = assay: NCI human tumor cell panel: RXF-393 (Renal Cancer); type: cell-based; settings: for GI50: RXF-393, read-out: Log10 GI50 (converted); for IC (TGI): RXF-393, read-out: Log10 TGI (converted)
TK-10 = assay: NCI human tumor cell panel: TK-10 (Renal Cancer); type: cell-based; settings: for GI50: TK-10, read-out: Log10 GI50 (converted)
PC-3 = assay: NCI human tumor cell panel: PC-3 (Prostate Cancer); type: cell-based; settings: for GI50: PC-3, read-out: Log10 GI50 (converted); for IC (TGI): PC-3, read-out: Log10 TGI (converted)
MDA-MB-231/ATCC = assay: NCI human tumor cell panel: MDA-MB-231/ATCC (Breast Cancer); type: cell-based; settings: for GI50: read-out: Log10 GI50 (converted)
NCI-H522 = assay: NCI human tumor cell panel: NCI-H522 (Non-Small Cell Lung Cancer); settings: for GI50: NCI-H522, read-out: Log10 GI50 (converted); for IC (TGI): NCI-H522, read-out: Log10 TGI
[1] = tested on: panel of sixty different human tumor cell lines; assay: NCI human tumor cell panel: whole panel (mean graph summary); settings: for Log10 TGI, Delta / Log10 TGI, Range: whole panel
T-47D = assay: NCI human tumor cell panel: T-47D (Breast Cancer); type: cell-based; settings: T47D
[2] = read-out: Log10 GI50 (converted)
[3] = read-out: Log10 TGI (converted)
[4] = Homo sapiens, MDA-MB-231, MDA-MB-231/ATCC
[5] = Homo sapiens, read-out: Log10 LC50, MG_MID, mean over the panel (converted)

Work on `OCc1ccc(-c2ccc(-c3ccc(CO)[se]3)[se]2)[se]1` [compound 675247] yielded a GI50 (HL-60(TB)) of 4.07 µM, a GI50 (K-562) of 1.32 µM and an IC (TGI) (K-562) of 5.01 µM. For the same compound, the GI50 (MOLT-4) was 3.31 µM, the IC (TGI) (MOLT-4) was 8.32 µM and the GI50 (A549/ATCC) was 4.57 µM. For the same compound, the IC (TGI) (A549/ATCC) was 19.5 µM, the GI50 (EKVX) was 5.01 µM and the IC (TGI) (EKVX) was 34.7 µM. The GI50 (NCI-H226; NCI-H226, read-out: Log10 GI50 (converted)) was 1.7 µM, the IC (TGI) (NCI-H226; NCI-H226, read-out: Log10 TGI (converted)) was 3.89 µM and the GI50 (NCI-H322M; [2]) was 11.2 µM. It also gave an IC (TGI) (NCI-H322M; [3]) of 24.5 µM, a GI50 (COLO 205) of 1.95 µM and an IC (TGI) (COLO 205) of 5.13 µM. For the same compound, the GI50 (HCC-2998) was 0.851 µM, the IC (TGI) (HCC-2998) was 3.24 µM and the GI50 (HCT-116) was 0.537 µM. It also gave an IC (TGI) (HCT-116) of 11.2 µM, a GI50 (HCT-15) of 3.8 µM and an IC (TGI) (HCT-15) of 12.3 µM. For the same compound, the GI50 (HT29) was 1.62 µM, the IC (TGI) (HT29) was 7.59 µM and the GI50 (KM12) was 4.47 µM. It also gave an IC (TGI) (KM12) of 15.1 µM, a GI50 (SF-268) of 1.74 µM and an IC (TGI) (SF-268) of 4.37 µM. The GI50 (SNB-19) was 5.5 µM, the IC (TGI) (SNB-19) was 25.1 µM and the GI50 (U251) was 0.468 µM. For the same compound, the IC (TGI) (U251) was 12.3 µM, the GI50 (MALME-3M) was 2.88 µM and the IC (TGI) (MALME-3M) was 10.7 µM. It also gave a GI50 (SK-MEL-28) of 5.13 µM, an IC (TGI) (SK-MEL-28) greater than 100 µM and a GI50 (OVCAR-3) of 0.209 µM. The IC (TGI) (OVCAR-3) was 1.17 µM, the GI50 (ACHN; [2]) was 3.98 µM and the IC (TGI) (ACHN; [3]) was greater than 100 µM. For the same compound, the GI50 (CAKI-1) was 0.0741 µM, the IC (TGI) (CAKI-1) was 0.468 µM and the GI50 (RXF-393) was 1.58 µM. The IC (TGI) (RXF-393) was 3.72 µM, the GI50 (TK-10) was 0.138 µM and the GI50 (PC-3) was 3.55 µM. For the same compound, the IC (TGI) (PC-3) was 12.3 µM, the GI50 (MDA-MB-231/ATCC; [4]) was 5.01 µM and the “Log10 GI50” value (MDA-MB-231/ATCC; MDA-MB-231/ATCC) was −5.27. For the same compound, the GI50 (NCI-H522) was 1.66 µM, the IC (TGI) (NCI-H522) was 3.39 µM and the CC50 [1, 5] was 45.7 µM. For the same compound, the CC50 ([1]; Homo sapiens, read-out: Log10 LC50, row head (cell line) not given (converted)) was greater than 100 µM, the “Log10 GI50, MG_MID” value ([1]; mean over the panel) was −5.65 and the “Log10 TGI, Delta” value [1] was 1.36. The “Log10 TGI, Range” value [1] was 2.33.
Work on `OCc1ccc(-c2ccc(-c3ccc[se]3)[se]2)[se]1` [compound 675246] yielded a GI50 (HL-60(TB)) of 5.75 µM, an IC (TGI) (HL-60(TB); read-out: Log10 TGI) greater than 100 µM and a GI50 (K-562) of 0.372 µM. The IC (TGI) (K-562) was 7.59 µM, the GI50 (MOLT-4) was 3.24 µM and the IC (TGI) (MOLT-4) was 12 µM. It also gave a GI50 (A549/ATCC) of 10.5 µM, an IC (TGI) (A549/ATCC) of 22.4 µM and a GI50 (EKVX) of 5.5 µM. For the same compound, the IC (TGI) (EKVX) was 17.4 µM, the GI50 (COLO 205) was 1 µM and the IC (TGI) (COLO 205) was 4.07 µM. For the same compound, the GI50 (HCC-2998) was 1.23 µM, the IC (TGI) (HCC-2998) was 11.7 µM and the GI50 (HCT-116) was 0.0646 µM. For the same compound, the IC (TGI) (HCT-116) was 10.7 µM, the GI50 (HCT-15) was 4.27 µM and the IC (TGI) (HCT-15) was 17.8 µM. It also gave a GI50 (HT29) of 0.851 µM, an IC (TGI) (HT29) of 10.7 µM and a GI50 (KM12) of 4.17 µM. For the same compound, the IC (TGI) (KM12) was 17 µM, the GI50 (SF-268) was 4.07 µM and the IC (TGI) (SF-268) was greater than 100 µM. For the same compound, the GI50 (SNB-19) was 12.3 µM, the IC (TGI) (SNB-19) was 52.5 µM and the GI50 (U251) was 0.0708 µM. It also gave an IC (TGI) (U251) of 12.3 µM, a GI50 (MALME-3M) of 6.17 µM and an IC (TGI) (MALME-3M) of 19.5 µM. For the same compound, the GI50 (SK-MEL-28) was 7.41 µM, the IC (TGI) (SK-MEL-28) was 21.9 µM and the GI50 (OVCAR-3) was 0.0603 µM. It also gave an IC (TGI) (OVCAR-3) of 1.29 µM, a GI50 (CAKI-1) of 5.37 µM and an IC (TGI) (CAKI-1) of 18.6 µM. It also gave a GI50 (RXF-393) of 0.0209 µM, an IC (TGI) (RXF-393) of 0.0912 µM and a GI50 (TK-10) of 1.91 µM. For the same compound, the IC (TGI) (TK-10; TK-10, read-out: Log10 TGI (converted)) was 10.7 µM, the GI50 (PC-3) was 3.8 µM and the IC (TGI) (PC-3) was 13.2 µM. The GI50 (MDA-MB-231/ATCC; [4]) was 4.37 µM, the IC (TGI) (MDA-MB-231/ATCC; Homo sapiens, MDA-MB-231, MDA-MB-231/ATCC, read-out: Log10 TGI (converted)) was 33.9 µM and the GI50 (T-47D; [2]) was 3.8 µM. The IC (TGI) (T-47D; [3]) was 15.1 µM, the GI50 (NCI-H522) was 2.45 µM and the IC (TGI) (NCI-H522) was 6.61 µM. The GI50 ([1]; Homo sapiens, read-out: Log10 GI50, MG_MID, mean over the panel (converted)) was 1.66 µM, the CC50 [1, 5] was 51.3 µM and the “Log10 TGI, MG_MID” value ([1]; mean over the panel) was −4.91. For the same compound, the “Log10 TGI, Delta” value [1] was 2.14 and the “Log10 TGI, Range” value [1] was 3.04.
